Data: patent US20120093875A1, “AMINOCYCLITOL COMPOUNDS, PROCESS FOR OBTAINING THEM AND USES” (priority 2009, published 2012)

Legend:
mouse iNKT cells = experiment: Mouse iNKT cells expansion in vitro in spleen cell cultures (flow cytometry, TCR/NK1.1); format: cell-based
Method: The compounds were assayed at a final concentration of 1 μg/mL in complete medium with 1% of methanol (MeOH), while the αGalCer (αGC) was used at 0.2 μg/mL. The cell cultures were labeled with anti-NK1-PE and anti-TCR-FITC specific antibodies. The percentages of NKT cells (double positive cells) were calculated within the population of electronically selected T cells.
First, the ability to induce the specific proliferation of mouse iNKT was determined by culture experiments in vitro. For that, spleen cells derived from female B57Bl/6 mice between 10 and 20 weeks were isolated and the red blood cells were removed by hypotonic lysis. The spleen cells are distributed in 96 U-well plates, between 100,000 and 500,000 cells per well, and incubated in the presence of each of the compounds 1a, 1b, 2b, 3a, 3b and 4b at a final concentration of 1 μg/mL in RPMI-1640 growth medium, 10% fetal serum, […], 1% methanol. […] The culture was analyzed at day 5 or 6 by flow cytometry, using TCR and NK1.1 specific antibodies. In the presence of the control αGalCer:
(§1) Mouse C57BL/6 spleen cells are obtained by isolation of the spleen of female mice from 8 to 12 weeks of age, according to protocols approved by the Animal and Human Research Ethics Committee of the Autonomous University of Barcelona. The spleens are disaggregated with the plunger of a syringe in […] in a laminar flow hood, removing the red blood cells with lysis buffer (Sigma-Aldrich). 5×10^5 cells are placed in the wells of 96 U-well plates, and incubated with 100 ng/mL of α-GalCer, OCH, or 1 μg/mL of the compounds 1a, 1b, 2b, 3a, 3b, and 4b in RPMI-1640 medium supplemented with 10% fetal calf serum (FCS) (Labclinics), 50 μM 2-mercaptoethanol, 2 mM L-glutamine and 1% methanol (non-toxic concentration for the cells), and grown at 37° C. in a 5% CO2 humidified atmosphere. 25 U/mL of recombinant human interleukin 2 are added at day 2 of culture.
The spleen cells cultures grown in the indicated conditions are analyzed by flow cytometry in a FACS Calibur (Beckton Dickinson Bioscience) for quantifying the levels of proliferation of the iNKTs after incubation with the compounds 1a, 1b, 2b, 3a, 3b, and 4b. The stimulated spleen cultures are washed and preincubated with 50 μl of staining medium (PBS with 2% FCS) with anti-CD16 (clone 2.4G2) for 20 min in ice. Subsequently the cells are washed and resuspended in staining medium with mouse anti-TCR antibody conjugated to fluorescein isothiocyanate (FITC) (clone H57-597, BD-Pharmingen) and anti-NK1.1 conjugated to avidin (clone PK-136, BD-Pharmingen) for 30 min in ice. […] The samples are analyzed in the flow cytometer (FACSCalibur) and the data are processed using the program CellQuest (BD Bioscience).

[1] = tested on: IFNγ production by iNKT cells; experiment: IFNγ production in mouse spleen cell cultures, dose-response (ELISA); format: cell-based; conditions: dose-response (FIG. 3a)
From the text: (§2) Quantifying of the production of IFNγ (FIG. 3A) and IL-4 (FIG. 3B) after the stimulation in vitro of cultures of mouse spleen cells containing lipidic agonists of iNKT cells in a dose-response assay.
(§3) The CD1d glycolipidic ligands induce a deviation in the production of cytokines by iNKT cells to Th1 or Th2, depending on its ability to be presented by CD1d, and its structural characteristics recognized by the TCR. For quantifying more precisely the immunostimulating ability of the compound 4b and determining if it induces a deviation in the iNKT response, its ability to induce the production of IFNγ and IL-4 is titrated in the cell cultures using different concentrations, and comparing the same with the two prototypical ligands, αGalCer and OCH (dissolved in MeOH), that have been described as inducers of a Th1 and Th2 response, respectively.
as §1
(§4) For the determinations of IL-4 and IFNγ, culture supernatants are taken at day 4 or day 7, and stored at −70° C. or used immediately in ELISA assays (eBioscience) for quantifying the cytokines, following the manufacturer's instructions. […] The statistical significance of the results is analyzed using a t-Student test, considering significant differences with p<0.01. […]

[2] = tested on: IL-4 production by iNKT cells; experiment: IL-4 production in mouse spleen cell cultures, dose-response (ELISA); format: cell-based; conditions: dose-response (FIG. 3b)
From the text: as §2
as §3, with “respectively. […]” for “respectively.”
as §4

iNKT cells = experiment: Th1/Th2 deviation of the iNKT response (IFNγ versus IL-4 production); format: cell-based, mouse; conditions: for type of cytokine response (Th1/Th2 profile): IL-4 versus IFNγ induction in mouse spleen cell cultures; for IFNγ/IL-4 ratio: cytokines in mouse spleen cell culture supernatants (ELISA)
From the text: as §3, §1
For the determinations of IL-4 and IFNγ, culture supernatants are taken at day 4 or day 7, and stored at −70° C. or used immediately in ELISA assays (eBioscience) for quantifying the cytokines, following the manufacturer's instructions. Standard curves are generated with the recombinant cytokines included in the kit. The statistical significance of the results is analyzed using a t-Student test, considering significant differences with p<0.01. The compounds 1a, 1b, 2b, 3a, 3b, and 4b are resuspended in 100% methanol or 100% dimethyl sulfoxide at a concentration of 1 mg/mL, and a 1/10 use dilution in PBS is prepared, with a final concentration of 100 μg/mL. The compounds are heated at 56° C. for 10-30 min and sonicated, before being diluted in complete growth medium, with a final concentration of 1% vehicle in the cellular assay.

[3] = compound 1 μg/mL, 1% methanol, IL-2 at day 2, analysed day 5 or 6

CCCCCCCCCCCCCCCCCCCCCCCCCC(=O)N[C@@H](CNC1[C@H](O)[C@H](O)C(O)[C@H](O)[C@H]1O)[C@H](O)[C@H](O)CCCCCCCCCCCCCC (some centres unmarked) [Compound 3a]
expansion of iNKTs (mouse iNKT cells; [3]): approximately 2 times

CCCCCCCCCCCCCC[C@@H](O)[C@@H](O)[C@H](CNC1[C@H](O)[C@H](O)C(O)[C@H](O)[C@H]1O)NC(=O)CCCCCCC (some centres unmarked) [Compound 3b]
expansion of iNKTs (mouse iNKT cells; [3]): approximately 2 times

CCCCCCCCCCCCCCCCCCCCCCCCCC(=O)N[C@@H](CN[C@H]1C[C@H](O)[C@@H](O)[C@H](O)[C@H]1O)[C@H](O)[C@H](O)CCCCCCCCCCCCCC [Compound 4b, (2S,3S,4R)-2-hexacosanamide-1-(1′S,2′S,3′R,4′R,5′S)-2,3,4,5,-tetrahydroxycyclohexylaminooctadecane-3,4-diol]
concentration at which production of IFNγ is induced [1]: 333 ng/mL
concentration at which the maximal IFNγ response plateau is reached [1]: 1 µg/mL
magnitude of the maximal IFNγ response compared with α-GalCer [1]: lower magnitude
NKT cells as percentage of the T cells after incubation (mouse iNKT cells; compound 1 μg/mL, increase from 1.2% baseline, day 5 or 6 (FIG. 1)): 6.2%
concentration at which induction of IL-4 is maintained with high efficiency [2]: 100 ng/mL
concentration at which induction of IL-4 is still significant [2]: 33 ng/mL
type of cytokine response (Th1/Th2 profile) (iNKT cells): preferably Th2-type response
IFNγ/IL-4 ratio (iNKT cells): 2
response compared with the Th2 response prototype OCH (iNKT cells; mouse spleen cell cultures, dose-response): lower response

CCCCCCCCCCCCCCCCCCCCCCCCCC(=O)N[C@@H](CO[C@H]1O[C@H](CO)[C@H](O)[C@H](O)[C@H]1O)[C@H](O)[C@H](O)CCCCCCCCCCCCCC [αGalCer, α-galactosylceramide, reference compound]
expansion of the population of NKT cells over the baseline conditions (mouse iNKT cells; αGalCer control (0.2 μg/mL per FIG. 1), 1% methanol, IL-2 at day 2, analysed day 5 or 6): more than 5 times
type of cytokine response (Th1/Th2 profile) (iNKT cells): high Th1 profile
IFNγ/IL-4 ratio (iNKT cells): 10
